The values below come from patent publication US9944613B2, “Fumagillol spirocyclic compounds and fused bicyclic compounds and methods of making and using same” (Zafgen, Inc., priority 2015, dated 2018).

The target of data set [1] is T1, recombinant human MetAP2 (Homo sapiens, UniProt P50579).
T1 construct: Flag; made in house
The data set is described as follows: Inhibition of recombinant human MetAP2 activity (MAS peptide / amino acid oxidase / Amplex assay). The class given is biochemical. The following applies: Flag tagged human recombinant MetAP2, 25 minutes at 25° C.; read-out: MetAP2 IC50.

Data set [2] relates to pregnant Sprague Dawley rats (embryo/fetal development). The data set is described as follows: Rat embryofetal development study. Type of data set: in vivo. The following applies: 6 mpk subcutaneously once every three days, Gestation Days 6-18, pregnant rats. From the text:
Study Summary Rat Embryofetal:
The objective of this study design was to evaluate the potential effects of disclosed compounds on embryo/fetal development when given subcutaneously to pregnant rats once every three days during the critical period of organogenesis (Gestation Days 6-18). Female, Sprague Dawley rats, approximately 10 weeks of age, time bred, were ordered from a certified vendor and housed individually housed in stainless steel cages suspended over flush pans, on a 12-hour light-dark cycle (0700-1900) at 20-26° C. and 30-70% humidity. Rats were fed a standard rodent chow and provided water ad libitum. Rats were received and housed in the facility for a period of approximately 1 to 2 days.
Compounds were formulated using 100% DMSO mixed in Sterile Water for Injection, resulting in 2% DMSO solution in water. If necessary, due to limited solubility of a test article, a higher percentage of DMSO solution in water was used. Groups of 8 mated and presumed pregnant female rats were given subcutaneous doses of vehicle or test article, once every three days, beginning on Gestation Day 6 and ending on Gestation Day 18 (Days 6, 9, 12, 15, and 18), maintained two more days, and then euthanized and necropsied on Gestation Day 20. Body weights was recorded for all animals on Gestation Days 5 (purpose of randomization), 6, 9, 12, 15, 18, and 20 (scheduled euthanasia). Food consumption by weight was recorded on Gestation Days 6, 9, 12, 15, 18, and 20 (scheduled termination).
At necropsy, the dams were examined visually for external abnormalities including palpable masses. The abdominal, thoracic, and cranial cavities and their contents were examined for abnormalities and findings will be recorded. The reproductive tract were examined to record the number of ovarian corpora lutea, the number and location of uterine implantation sites noting the position of the cervix, and the number of early resorptions, late resorptions, live fetuses, and dead fetuses. For dead fetuses and late resorptions, crown-to-rump length and weight were recorded, if possible, and the fetus was discarded. For viable fetuses, weight, sex, and grossly visible external abnormalities were recorded.

Data set [3] concerns Diet Induced Obese (DIO) C57BL/6 mice. Briefly: 10 day DIO mouse model, weight loss vs. vehicle. The class given is in vivo. The following applies: 240 h, 0.3 mpk sc once a day for 10 days.
Data set [4] deals with human fibrosarcoma cell line HT-1080. Briefly: HT-1080 cell growth inhibition (CellTiter-Glo, 72 hours). The settings on record: HT-1080 cells, 72 hours incubation. Type of data set: cell-based. How it is done: The human fibrosarcoma cell line HT-1080 were grown to almost complete confluence in T75 tissue culture flasks in preparation for the experiment. The cells were trypsinised and re-suspended in complete medium using DMEM plus 9% FBS including penicillin/streptomycin supplements. 500 cells in a total volume of 25 μl were seeded into black walled 384 well plates and returned to a CO2 incubator over-night. Compounds and standards were prepared at 333.3× actual test concentration in neat DMSO. 10 point dose response curves of test compounds were generated by 1:3 serial dilutions, 2 μl of DMSO stock was transferred to 109 μl complete medium. This was further diluted 1:6 in complete medium, with 5 μl of the resulting solution added to the incubated 384 well plate. […] For experimental blanks at the start of the experiment, CellTiter-Glo was added to a satellite plate of cells (identical to the experimental plate), when adding compounds on Day 1. The average of these wells is used as the blanks in the calculation template. […] Luminescence per well was determined using an EnVision 2104 Multilabel Reader (PerkinElmer) or other suitable reader. The compound blank value recorded on Day 1 is subtracted from all other data. […] The EC50 values are determined from a sigmoidal 4 parameter curve fit using XLfit in conjunction with Activity Base (IDBS; Guildford, Surrey, UK). […]

The test system of data set [5] is rat DIO model (Sprague Dawley rats on high fat diet). The data set is described as follows: 11 day rat DIO model, weight loss vs. vehicle. Type of data set: in vivo. The following applies: Rattus norvegicus, 264 h, 0.3 mpk sc once a day for 11 days. From the text: The objective of this study design is to investigate the efficacy of disclosed compounds in an 11 day rat DIO model used to screen compounds for pharmacologic efficacy on endpoints related to obesity and metabolism. Effects on body weight, food intake, hematology and blood chemistries were the primary readouts of this study design. Male Sprague Dawley rats, approximately 8 weeks of age, were ordered from a certified vendor and housed on irradiated corncob bedding in micro-isolator cages, on a 12-hour light-dark cycle (0700-1900) at 68-74° F. and 30-70% humidity. Rats were fed Research Diets D12451 (45% High Fat) and provided water ad libitum. Rats were received and housed in the facility for at least two or three weeks prior to start of test article administration. On Day −4 or −3, rats were randomized into study groups based on body weight and body weights were continued to be recorded daily for the duration of the study. Daily food intake was assessed starting on Study Day −2 by weighing the hopper including the food to avoid loss of food in transfer.
Compounds were formulated into a 100% DMSO stock (at 9 mg/mL) prior to the start, and further diluted into the target working concentration using the vehicle of 10% DMSO in water. Prior to test article administration, starting on Day −3 a dosing acclimation occured with all animals receiving a subcutaneous injection of vehicle (10% DMSO) only for 3 days. Starting on Day 1, test compounds or vehicle were administered based on individual body weight, subcutaneously, once a day for 11 days. All animals were sacrificed on Day 11, approximately 2 hours following the final dosing on Day 11. After sacrifice, whole blood was collected and analyzed for hematology and blood chemistry parameters.
Compounds were tested for weight loss vs. vehicle at 0.3 and 1.0 mpk sc (mg per kg animal weight delivered subcutaneously), and the results are shown in Table 2 below.

T1 sequence (P50579 whole entry): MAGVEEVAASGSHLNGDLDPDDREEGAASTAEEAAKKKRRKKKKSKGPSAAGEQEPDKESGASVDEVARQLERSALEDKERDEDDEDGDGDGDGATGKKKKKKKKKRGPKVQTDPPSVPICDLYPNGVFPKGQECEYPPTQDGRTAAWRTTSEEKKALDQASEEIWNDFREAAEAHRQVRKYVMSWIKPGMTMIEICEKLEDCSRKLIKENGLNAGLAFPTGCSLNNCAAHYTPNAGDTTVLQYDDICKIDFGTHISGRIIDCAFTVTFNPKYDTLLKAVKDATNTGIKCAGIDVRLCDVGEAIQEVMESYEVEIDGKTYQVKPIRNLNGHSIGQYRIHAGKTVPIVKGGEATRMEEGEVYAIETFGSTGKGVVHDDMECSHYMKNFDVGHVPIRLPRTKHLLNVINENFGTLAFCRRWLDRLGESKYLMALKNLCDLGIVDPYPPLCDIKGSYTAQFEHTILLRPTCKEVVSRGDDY

Turning to `CO[C@@H]1[C@H](OC(=O)N2CCC3(COC3)C2)CC[C@]2(CO2)[C@H]1[C@@]1(C)O[C@@H]1CC=C(C)C` [Example 4, (3R,4S,5S,6R)-5-methoxy-4-((2R,3R)-2-methyl-3-(3-methylbut-2-en-1-yl)oxiran-2-yl)-1-oxaspiro[2.5]octan-6-yl 2-oxa-6-azaspiro[3.4]octane-6-carboxylate], the half-inhibitory concentration (IC50) in data set [1] is below 50 nM. The “Rat Embryofetal @6 mpk” value in data set [2] is “Negative”. The same molecule returned an inhibition in vivo at 0.3 mg/kg in data set [3] of 15.4%. This molecule returned a half-maximal effective concentration (EC50) in data set [4] below 0.5 nM.
Take `CO[C@@H]1[C@H](OC(=O)/C=C/c2ccc(OCCN(C)C)cc2)CC[C@]2(CO2)[C@H]1[C@@]1(C)O[C@@H]1CC=C(C)C` [compound A, [(3R,6R,7S,8S)-7-methoxy-8-[(2R,3R)-2-methyl-3-(3-methylbut-2-enyl)oxiran-2-yl]-2-oxaspiro[2.5]octan-6-yl] (E)-3-[4-[2-(dimethylamino)ethoxy]phenyl]prop-2-enoate, reference compound]: in data set [2], the “Rat Embryofetal @6 mpk” value is on record as “Positive”. Moreover, the inhibition in vivo at 0.3 mg/kg in data set [3] was determined as 18%; in data set [5] it was 20%. Further, the concentration for a half-maximal effect (EC50) in data set [4] was 0.5 to 1 nM.
